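Values below derive from 48-hour exposures of cells grown in 96-well plates, with endpoints linearly interpolated between the two concentrations bracketing the appropriate inhibition level. GI50: concentration for 50% inhibition of growth. Definition used: TGI = concentration required for complete inhibition of growth.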
Assays:
Test in all cases: NCI anticancer screen, dose series, 48 h
UACC-257 melanoma = system: UACC-257 melanoma
SK-MEL-5 melanoma = system: SK-MEL-5 melanoma
HOP-62 NSCLC = system: HOP-62 NSCLC
EKVX NSCLC = system: EKVX NSCLC
RPMI-8226 leukemia = system: RPMI-8226 leukemia
A498 renal = system: A498 renal
HL-60(TB) leukemia = system: HL-60(TB) leukemia
TK-10 renal = system: TK-10 renal
HT29 colon = system: HT29 colon
NCI-H226 lung = system: NCI-H226 lung
OVCAR-8 ovarian = system: OVCAR-8 ovarian
SNB-75 CNS = system: SNB-75 CNS
A549 NSCLC = system: A549 NSCLC
HCT-15 colon = system: HCT-15 colon
SN12C renal = system: SN12C renal
IGROV1 ovarian = system: IGROV1 ovarian
KM12 colon = system: KM12 colon
SK-OV-3 ovarian = system: SK-OV-3 ovarian
SR leukemia = system: SR leukemia
BT-549 breast = system: BT-549 breast
HS 578T breast = system: HS 578T breast
SF-539 CNS = system: SF-539 CNS
HCC-2998 colon = system: HCC-2998 colon
CCRF-CEM leukemia = system: CCRF-CEM leukemia
OVCAR-4 ovarian = system: OVCAR-4 ovarian
SW-620 colon = system: SW-620 colon
MDA-MB-231 breast = system: MDA-MB-231 breast
NCI-H23 lung = system: NCI-H23 lung
HCT-116 colon = system: HCT-116 colon
NCI-H460 lung = system: NCI-H460 lung
CAKI-1 renal = system: CAKI-1 renal
UO-31 renal = system: UO-31 renal
UACC-62 melanoma = system: UACC-62 melanoma
SK-MEL-28 melanoma = system: SK-MEL-28 melanoma
NCI/ADR-RES ovarian = system: NCI/ADR-RES ovarian
T-47D breast = system: T-47D breast
K-562 leukemia = system: K-562 leukemia
PC-3 prostate = system: PC-3 prostate
SK-MEL-2 melanoma = system: SK-MEL-2 melanoma
LOX IMVI melanoma = system: LOX IMVI melanoma
SF-295 CNS = system: SF-295 CNS
MOLT-4 leukemia = system: MOLT-4 leukemia
NCI-H522 lung = system: NCI-H522 lung
OVCAR-5 ovarian = system: OVCAR-5 ovarian
786-0 renal = system: 786-0 renal
M14 melanoma = system: M14 melanoma
DU-145 prostate = system: DU-145 prostate
U251 CNS = system: U251 CNS
MCF7 breast = system: MCF7 breast
MALME-3M melanoma = system: MALME-3M melanoma
SNB-19 CNS = system: SNB-19 CNS
SF-268 CNS = system: SF-268 CNS
OVCAR-3 ovarian = system: OVCAR-3 ovarian
COLO 205 colon = system: COLO 205 colon
RXF 393 renal = system: RXF 393 renal
HOP-92 NSCLC = system: HOP-92 NSCLC
ACHN renal = system: ACHN renal
MDA-MB-435 = system: MDA-MB-435

Work on COc1ccccc1C(=O)/C=C/c1cc2cccc(OC)c2[nH]c1=O yielded a GI50 (UACC-257 melanoma) of 1630 nM, a TGI (UACC-257 melanoma) of 9260 nM and a GI50 (SK-MEL-5 melanoma) of 37.4 nM. It also gave a TGI (SK-MEL-5 melanoma) of 843 nM, a GI50 (HOP-62 NSCLC) of 66.8 nM and a TGI (HOP-62 NSCLC) of 4900 nM. The GI50 (EKVX NSCLC) was 375 nM, the TGI (EKVX NSCLC) was 3170 nM and the GI50 (RPMI-8226 leukemia) was < 18.1 nM. For the same compound, the TGI (RPMI-8226 leukemia) was 1420 nM, the GI50 (A498 renal) was 15.8 nM and the TGI (A498 renal) was 78.8 nM. For the same compound, the GI50 (HL-60(TB) leukemia) was 14.4 nM, the TGI (HL-60(TB) leukemia) was 58.3 nM and the GI50 (TK-10 renal) was 1140 nM. For the same compound, the TGI (TK-10 renal) was 11500 nM, the GI50 (HT29 colon) was < 13.1 nM and the TGI (HT29 colon) was 4020 nM. The GI50 (NCI-H226 lung) was 71.6 nM, the TGI (NCI-H226 lung) was 3470 nM and the GI50 (OVCAR-8 ovarian) was 39.2 nM. It also gave a TGI (OVCAR-8 ovarian) of 15000 nM, a GI50 (SNB-75 CNS) of 19.1 nM and a TGI (SNB-75 CNS) of 3600 nM. For the same compound, the GI50 (A549 NSCLC) was 69 nM, the TGI (A549 NSCLC) was 12600 nM and the GI50 (HCT-15 colon) was 27 nM. For the same compound, the TGI (HCT-15 colon) was 1730 nM, the GI50 (SN12C renal) was 79 nM and the TGI (SN12C renal) was 2640 nM. For the same compound, the GI50 (IGROV1 ovarian) was 52.3 nM, the TGI (IGROV1 ovarian) was 2360 nM and the GI50 (KM12 colon) was < 16.7 nM. It also gave a TGI (KM12 colon) of 1130 nM, a GI50 (SK-OV-3 ovarian) of 554 nM and a TGI (SK-OV-3 ovarian) of 14900 nM. The TGI (SR leukemia) was > 51300 nM, the GI50 (BT-549 breast) was 112 nM and the TGI (BT-549 breast) was 1370 nM. The GI50 (HS 578T breast) was 16.3 nM, the TGI (HS 578T breast) was 10800 nM and the GI50 (SF-539 CNS) was 21.1 nM. The TGI (SF-539 CNS) was 84.8 nM, the GI50 (HCC-2998 colon) was 141 nM and the TGI (HCC-2998 colon) was 1300 nM. The GI50 (CCRF-CEM leukemia) was < 18.2 nM, the TGI (CCRF-CEM leukemia) was > 37900 nM and the GI50 (OVCAR-4 ovarian) was 314 nM. The TGI (OVCAR-4 ovarian) was 8370 nM, the GI50 (SW-620 colon) was 15.8 nM and the TGI (SW-620 colon) was 1560 nM. For the same compound, the GI50 (MDA-MB-231 breast) was 151 nM, the TGI (MDA-MB-231 breast) was 1790 nM and the GI50 (NCI-H23 lung) was 125 nM. For the same compound, the TGI (NCI-H23 lung) was 2040 nM, the GI50 (HCT-116 colon) was < 22.5 nM and the TGI (HCT-116 colon) was 632 nM. The GI50 (NCI-H460 lung) was 24.3 nM, the TGI (NCI-H460 lung) was 524 nM and the GI50 (CAKI-1 renal) was 24.1 nM. The TGI (CAKI-1 renal) was 1540 nM, the GI50 (UO-31 renal) was 115 nM and the TGI (UO-31 renal) was 1680 nM. It also gave a GI50 (UACC-62 melanoma) of 41.2 nM, a TGI (UACC-62 melanoma) of 1930 nM and a GI50 (SK-MEL-28 melanoma) of 1080 nM. It also gave a TGI (SK-MEL-28 melanoma) of 6630 nM, a GI50 (NCI/ADR-RES ovarian) of 19.4 nM and a TGI (NCI/ADR-RES ovarian) of 13600 nM. The GI50 (T-47D breast) was 626 nM, the TGI (T-47D breast) was 12800 nM and the GI50 (K-562 leukemia) was < 12.5 nM. The TGI (K-562 leukemia) was > 89100 nM, the GI50 (PC-3 prostate) was 50.3 nM and the TGI (PC-3 prostate) was 2270 nM. The GI50 (SK-MEL-2 melanoma) was 656 nM, the TGI (SK-MEL-2 melanoma) was 4700 nM and the GI50 (LOX IMVI melanoma) was 26.2 nM. For the same compound, the TGI (LOX IMVI melanoma) was 724 nM, the GI50 (SF-295 CNS) was 25.6 nM and the TGI (SF-295 CNS) was 3850 nM. For the same compound, the GI50 (MOLT-4 leukemia) was 40.8 nM, the TGI (MOLT-4 leukemia) was 5200 nM and the GI50 (NCI-H522 lung) was 101 nM. The TGI (NCI-H522 lung) was 2160 nM, the GI50 (OVCAR-5 ovarian) was 321 nM and the TGI (OVCAR-5 ovarian) was 2890 nM. The GI50 (786-0 renal) was 40.1 nM, the TGI (786-0 renal) was 1380 nM and the GI50 (M14 melanoma) was < 13.1 nM. It also gave a TGI (M14 melanoma) of 300 nM, a GI50 (DU-145 prostate) of 33.1 nM and a TGI (DU-145 prostate) of 714 nM. It also gave a GI50 (U251 CNS) of 31.9 nM, a TGI (U251 CNS) of 1500 nM and a GI50 (MCF7 breast) of 35.8 nM. It also gave a TGI (MCF7 breast) of 4120 nM, a GI50 (MALME-3M melanoma) of 51.1 nM and a TGI (MALME-3M melanoma) of 4600 nM. For the same compound, the GI50 (SNB-19 CNS) was 33.2 nM, the TGI (SNB-19 CNS) was 1470 nM and the GI50 (SF-268 CNS) was 93.5 nM. It also gave a TGI (SF-268 CNS) of 2060 nM, a GI50 (OVCAR-3 ovarian) of 34.3 nM and a TGI (OVCAR-3 ovarian) of 600 nM. For the same compound, the GI50 (COLO 205 colon) was 48.1 nM, the TGI (COLO 205 colon) was 1430 nM and the GI50 (RXF 393 renal) was 58.4 nM. For the same compound, the TGI (RXF 393 renal) was 991 nM, the GI50 (HOP-92 NSCLC) was 115 nM and the TGI (HOP-92 NSCLC) was 2070 nM. The GI50 (ACHN renal) was 55.7 nM and the TGI (ACHN renal) was 2150 nM.

With Cc1ccc(S(=O)(=O)N2CCCSCCSCCCSCC2)cc1 the TGI (UACC-257 melanoma) was > 100000 nM, the TGI (SK-MEL-5 melanoma) was > 100000 nM and the TGI (HOP-62 NSCLC) was > 100000 nM. The TGI (EKVX NSCLC) was > 100000 nM, the TGI (HL-60(TB) leukemia) was > 100000 nM and the TGI (TK-10 renal) was > 100000 nM. For the same compound, the TGI (HT29 colon) was > 100000 nM, the TGI (OVCAR-8 ovarian) was > 100000 nM and the TGI (SNB-75 CNS) was > 100000 nM. For the same compound, the TGI (A549 NSCLC) was > 100000 nM, the TGI (HCT-15 colon) was > 100000 nM and the TGI (SN12C renal) was > 100000 nM. For the same compound, the TGI (IGROV1 ovarian) was > 100000 nM, the TGI (KM12 colon) was > 100000 nM and the TGI (SK-OV-3 ovarian) was > 100000 nM. The TGI (SR leukemia) was > 100000 nM, the TGI (BT-549 breast) was > 100000 nM and the TGI (SF-539 CNS) was > 100000 nM. For the same compound, the TGI (HCC-2998 colon) was > 100000 nM, the TGI (CCRF-CEM leukemia) was > 100000 nM and the TGI (OVCAR-4 ovarian) was > 100000 nM. The TGI (SW-620 colon) was > 100000 nM, the TGI (MDA-MB-231 breast) was > 100000 nM and the TGI (NCI-H23 lung) was > 100000 nM. The TGI (HCT-116 colon) was > 100000 nM, the TGI (NCI-H460 lung) was > 100000 nM and the TGI (UO-31 renal) was > 100000 nM. The TGI (UACC-62 melanoma) was > 100000 nM, the TGI (SK-MEL-28 melanoma) was > 100000 nM and the TGI (NCI/ADR-RES ovarian) was > 100000 nM. For the same compound, the TGI (MDA-MB-435) was > 100000 nM, the TGI (T-47D breast) was > 100000 nM and the TGI (K-562 leukemia) was > 100000 nM. For the same compound, the TGI (PC-3 prostate) was > 100000 nM, the TGI (LOX IMVI melanoma) was > 100000 nM and the TGI (SF-295 CNS) was > 100000 nM. The TGI (MOLT-4 leukemia) was > 100000 nM, the TGI (NCI-H522 lung) was > 100000 nM and the TGI (OVCAR-5 ovarian) was > 100000 nM. For the same compound, the TGI (786-0 renal) was > 100000 nM, the TGI (M14 melanoma) was > 100000 nM and the TGI (DU-145 prostate) was > 100000 nM. The TGI (U251 CNS) was > 100000 nM, the TGI (MCF7 breast) was > 100000 nM and the TGI (SNB-19 CNS) was > 100000 nM. For the same compound, the TGI (SF-268 CNS) was > 100000 nM, the TGI (OVCAR-3 ovarian) was > 100000 nM and the TGI (COLO 205 colon) was > 100000 nM. The TGI (HOP-92 NSCLC) was > 100000 nM.

Reference: PubChem BioAssay (NCI)
